Experimental findings from article PMC8705409, “Synthesis of sp^2-Iminosugar Selenoglycolipids as Multitarget Drug Candidates with Antiproliferative, Leishmanicidal and Anti-Inflammatory Properties” (Molecules, 2021) are described below.

For data set [1], the system named is intracellular amastigotes of Leishmania donovani HU3. Description: Susceptibility of intracellular Leishmania amastigotes (luciferase) in THP-1 macrophages. The format is cell-based. The following applies: L. donovani HU3 in macrophage-differentiated THP-1, 72 h, threshold 20 μM. As for the experimental part:
Macrophage-differentiated-THP-1 cells, which are considered a suitable model for human macrophages, were plated at a density of 3 × 10^4 macrophages/well in 96-well white polystyrene microplates, and were infected at a macrophage/parasite ratio of 1:10 with L. donovani HU3 promastigotes. 24 h after infection at 35 °C and 5% CO2, extracellular parasites were removed by washing with serum-free medium. Infected cell cultures were then incubated at different compound concentrations in RPMI 1640 medium plus 10% iFBS at 37 °C with 5% CO2 for 72 h. To determine the susceptibility of L. donovani-LUC amastigotes, infected macrophages maintained in 96-well plates were lysed and then luminescence intensity was measured as indicative of the intracellular parasite growth, using the Luciferase Assay System Kit (Promega, Madison, WI, USA) according to the instructions of the supplier.

The test system of data set [2] is T-47D (breast) human solid tumor cell line. Description: Antiproliferative SRB assay (HTS), T-47D. The format is cell-based. Conditions: T47D, 48 h. Here is the method: (§1) All reagents were used as purchased from commercial suppliers without further purification. The human solid tumor cell lines used in this study were: A549, SW1573 (lung), HBL-100, T-47D (breast), HeLa (cervix) and WiDr (colon). These cell lines were a kind gift from Prof. G.J. Peters (VU Medical Center, Amsterdam, The Netherlands).
(§2) Cells were inoculated onto 96-well microtiter plates in a volume of 100 μL per well at densities of 2500 (A549, HBL-100, HeLa, and SW1573) and 5000 (T-47D and WiDr) cells per well, based on their doubling times. Compounds were initially dissolved in DMSO at 400 times the desired final maximum test concentration. Control cells were exposed to an equivalent concentration of DMSO (0.25% v/v, negative control). Each agent was tested in triplicate at different dilutions in the range of 1–100 μM. The drug treatment started on day 1 after plating. Drug incubation times were 48 h, after which cells were precipitated with 25 μL ice-cold TCA (50% w/v) and fixed for 60 min at 4 °C. Then the SRB assay was performed. The optical density (OD) of each well was measured at 530 nm, using BioTek’s PowerWave XS Absorbance Microplate Reader. Values were corrected for background OD from wells only containing medium. The antiproliferative activity for each compound, expressed as GI50 values, was calculated according to NCI formulas.
A general note: The SRB assay estimates cell density from bound dye.

The subject of data set [3] is A549 (lung) human solid tumor cell line. Description: Antiproliferative SRB assay (HTS), A549. The format is cell-based. Conditions: 48 h. Here is the method:
as §1, §2

Data set [4] deals with HBL-100 (breast) human solid tumor cell line. The experiment in a line: Antiproliferative SRB assay (HTS), HBL-100. The format is cell-based. The following applies: 48 h. As for the experimental part:
as §1, §2

Data set [5] deals with SW1573 (lung) human solid tumor cell line. The experiment in a line: Antiproliferative SRB assay (HTS), SW1573. The format is cell-based. The following applies: 48 h. Here is the method: as §1, §2
Data set [6] in a line: Cellular toxicity, MTT assay, MRC-5. The format is cell-based. The following applies: human, maximal concentration 200 µM, read-out: EC50 MRC-5 Cell Line (cytotoxicity). As for the experimental part:
(§3) Human myelomonocytic cell line THP-1 was grown at 37 °C and 5% CO2 in RPMI-1640 supplemented with 10% iFBS, 2 mM […], 100 U/mL penicillin and 100 μg/mL streptomycin. 3 × 10^4 cells/well in 96-well plates were differentiated to macrophages with 20 ng/mL of PMA treatment for 48 h followed by 24 h of culture in fresh medium. MRC5 cells were grown at 37 °C and 5% CO2 in DMEM complete media. 4000 cells/well in 96-well plates were incubated for 24 h at 37 °C and 5% CO2.
(§4) Cellular toxicity of all compounds was determined using the colorimetric MTT-based assay after incubation at 37 °C for 72 h in the presence of increasing concentrations of compounds (final maximal concentrations 200 µM). The results are expressed as EC50 values, as the concentration of the compound that reduce cell growth by 50% versus untreated control cells. Assays were performed in triplicate.
Background: Tetrazolium dyes change colour on reduction, which living cells bring about.

Data set [7] concerns HeLa (cervix) human solid tumor cell line. Description: Antiproliferative SRB assay (HTS), HeLa. Conditions: 48 h. The format is cell-based. Here is the method:
as §1, §2

The nature of data set [8]: Cellular toxicity, MTT assay, THP-1. The format is cell-based. The following applies: human, maximal concentration 200 µM, read-out: EC50 THP-1 Cell Line (cytotoxicity). Here is the method:
as §3, §4

Data set [9] has as its system human solid tumor cell lines A549, SW1573, HBL-100, T-47D, HeLa, WiDr. Description: Antiproliferative SRB assay (HTS), whole panel of six cell lines. The format is cell-based. The following applies: for GI50: Homo sapiens, range over the six tumor cell lines, read-out: GI50 against all the cell lines tested. As for the experimental part: as §1, §2
In data set [10] the test system is WiDr (colon) human solid tumor cell line. Description: Antiproliferative SRB assay (HTS), WiDr. The following applies: 48 h. The format is cell-based. Here is the method: as §1, §2
Data set [11] deals with arginase-1 expression in Bv.2 microglial cells. The experiment in a line: Arginase-1 levels (Western blot). The format is cell-based, mouse. Conditions: Bv.2 cells, absence or presence of LPS 200 ng/mL; 10 at 10 μM, 14 at 50 μM. Here is the method: (§5) Mouse microglia Bv.2 cell line was supplied by Dr. M.L. Nieto (IBGM, Valladolid, Spain). Bv.2 cells were cultured at 37 °C in a humidified atmosphere with 5% CO2 in RPMI supplemented with 10% (v/v) heat-inactivated FBS, 1% (v/v) penicillin/streptomycin (Sigma) and 2 mM L-glutamine (Gibco, Carlsbad, CA, USA). Cells were grown up to 70% confluence and then washed twice with PBS and further cultured in serum-free medium and stimulated with LPS (200 ng/mL) with or without 14/10 (0.1–50 µM) for 24 h.
(§6) Bv.2 microglial cells were homogenized in lysis buffer containing 50 mM Tris-HCl, pH 7.4, 150 mM NaCl, 1 mM Na3VO4, 1 mM NaF, 1 mM EGTA, […] and 0.25% (w/v) sodium deoxycholate, supplemented with protease inhibitors (10 µg/mL leupeptin, 10 µg/mL aprotinin, and 100 µg/mL phenylmethylsulphonyl fluoride). All debris was removed by centrifugation at 14,000× g for 10 min at 4 °C and protein concentration was quantified using the Bio-Rad protein assay with BSA as a standard. Equivalent amounts of protein were resolved using denaturing sodium dodecyl sulphate-polyacrylamide gel electrophoresis (SDS-PAGE), followed by transfer to PVDF membranes (Bio-Rad). […]
(§7) Densitometry of the Western blots was performed using the ImageJ program. […] Data were analyzed by one-way ANOVA followed by Bonferroni t-test or by paired t-test when comparisons were among two groups. […]
For orientation: A western blot detects proteins with antibodies after separation by electrophoresis.

Data set [12] relates to iNOS expression in Bv.2 microglial cells. The experiment in a line: LPS-induced iNOS protein expression (Western blot). The format is cell-based, mouse. Conditions: Bv.2 cells, LPS 200 ng/mL, compound at 10 μM. As for the experimental part:
as §5, §6, §7

For data set [13], the system named is nitrite production in Bv.2 microglial cells. The experiment in a line: Nitrite production in LPS-stimulated Bv.2 cells (Griess method). The format is cell-based, mouse. Conditions: LPS 200 ng/mL, 24 h. Here is the method:
as §5
Nitrite levels were measured by using the Griess method. Briefly, nitrites turn into a pink compound in contact with an acid solution containing 1% sulphanilamide and 0.1% N-(1-naphthyl)ethylenediamine (NEDA), and can be quantified by a colorimetric method at 540 nm in a microplate reader (Versamax Tunable Microplate reader, Molecular Devices, Sunnyvaley, CA, USA).

The next data set relates to Bv.2 microglia cells. The experiment in a line: Cellular viability by crystal violet staining. The format is cell-based, mouse. The following applies: Bv.2 cells, 24 h, different concentrations. As for the experimental part:
as §5
After cell treatments, the medium was discarded, and the remaining viable adherent cells were stained with crystal violet (0.2% w/v in 2% ethanol) for 20 min. After this time, plates were rinsed with tap water and allowed to dry, and 1% SDS was added to solubilize them. The absorbance of each plate was read spectrophotometrically at 560 nm.

Where [14] appears, read: THP-1 cells differentiated to macrophages with PMA.

Entries after “also recorded” stand apart in the source; their conditions may differ.

`O=C1OC[C@@H]2[C@@H](O)[C@H](O)[C@@H](O)[C@@H]([Se]c3ccccc3)N12` [Compound 8, (1R)-1-Phenylseleno-5N,6O-oxomethylidenenojirimycin]: the EC50 in [1] was more than 20 µM. The GI50 in data set [2], in data set [3], in data set [4], in data set [5], in data set [7] and in data set [10] was more than 100 µM throughout. Also, the EC50 at 72 h in data set [6] was 172 ± 27 µM; in data set [8] it was more than 200 µM. Besides, the “antiproliferative activity” value in data set [9] (panel of six tumor cell lines) was “lack of activity; also recorded: inactive”.
In turn, `CCCCCCCCCCCCN[C@@H]1[C@H](O)[C@@H](O)[C@H](O)[C@H]2COC(=O)N21` [Compound 12, (1S)-1-Amino-N-dodecyl-5N,6O-oxomethylidene-1-deoxynojirimycin] had an EC50 in [1] of more than 20 µM. For the same compound, the GI50 is 23 µM in data set [2]; 18 µM in data set [3]; 23 µM in data set [4]; 30 µM in data set [5]; 23 µM in [7]; 18 to 30 µM in data set [9]. Besides, halving of growth in [10] (GI50) required 22 µM. Moreover, the EC50 at 72 h came out at 49.6 ± 4.2 µM in data set [6] (MRC-5 cells) and 122 ± 13.3 µM in data set [8] (setting [14]).
`CCCCCCCCCCCCCCCCOP(=O)([O-])OCC[N+](C)(C)C` [Miltefosine, reference compound]: in data set [1], the EC50 came out at 0.44 ± 0.08 µM. Further, the values for the EC50 at 72 h in data set [6] (MRC-5 cells) and in data set [8] (setting [14]) were 57.6 ± 6.38 µM and 26.9 ± 3.08 µM, respectively.
Take `CCCCCCCCN[C@@H]1[C@H](O)[C@@H](O)[C@H](O)[C@H]2COC(=O)N21` [Compound 11, (1S)-1-amino-N-octyl-5N,6O-oxomethylidene-1-deoxynojirimycin]: in data set [1], the EC50 was more than 20 µM. Besides, the GI50 in data set [2], in data set [3], in data set [4], in [5], in data set [7] and in data set [9] was more than 100 µM each time. The compound further showed a GI50 in [10] of more than 100 µM. Also, the EC50 at 72 h in data set [6] (MRC-5 cells) worked out at 155 ± 5.3 µM; in data set [8] (setting [14]) it was 209 ± 10.3 µM.
In data set [1], `CCCCCCCCS[C@@H]1[C@H](O)[C@@H](O)[C@H](O)[C@H]2COC(=O)N21` [Compound 13, (1R)-1-octylthio-5N,6O-oxomethylidenenojirimycin] yielded an EC50 of more than 20 µM. Also, the GI50 in data set [2] was 95 µM; in data set [3] it was 58 µM; in [4], 73 µM; in [5] it was more than 100 µM; in [7], 92 µM; in data set [9] it was not below 36 µM. This compound also came in with a GI50 in data set [10] of 89 µM. For the same compound, the EC50 at 72 h in [6] (MRC-5 cells) is 58.1 ± 12.6 µM; in data set [8] (setting [14]), 122 ± 5.79 µM.
For `CCCCCCCCCCCC[Se][C@@H]1[C@H](O)[C@@H](O)[C@H](O)[C@H]2COC(=O)N21` [Compound 10, (1R)-1-Dodecylseleno-5N,6O-oxomethylidenenojirimycin], the EC50 in data set [1] was determined as 13.4 ± 1.63 µM. Also, the GI50 in [2] was 21 µM; in data set [3] it was 18 µM; in data set [4], 24 µM; in data set [5] it was 28 µM; in data set [7], 22 µM; in [9] it was 16 to 28 µM. This compound also came in with a GI50 in [10] of 22 µM. The “induction of arginase-1” value in [11] is given as “direct effect on the induction of arginase-1”. For the same compound, the “effect on LPS-elicited enhancement of iNOS” value in [12] is reported as “fully abrogated”. Moreover, the “concentration at which nitrite production reached basal level” value in [13] is 10 µM. The results for the 50% effective concentration (EC50) at 72 h in [6] and in [8] were 31.2 ± 1.61 µM and 84.25 ± 0.06 µM, respectively. In addition, the “effect on cellular viability” value with Bv.2 microglia cells is reported as “none of the concentrations used induced a negative effect”.
`CCCCCCCC[Se][C@@H]1[C@H](O)[C@@H](O)[C@H](O)[C@H]2COC(=O)N21` [Compound 9, (1R)-1-Octylseleno-5N,6O-oxomethylidenenojirimycin] came in with a half-maximal effective concentration (EC50) in data set [1] of more than 20 µM. In addition, the GI50 in data set [2] is 71 µM; in [3], 36 µM; in data set [4] it was more than 100 µM; in [5], more than 100 µM; in data set [7] it was 49 µM; in data set [9], not below 36 µM. The GI50 in [10] turned out to be 64 µM. Also, the EC50 at 72 h was 94.3 ± 4.95 µM in [6] and more than 200 µM in [8].

One may read the EC50 as the concentration giving half of the maximal effect. The term GI50 denotes the concentration that inhibits growth by half.
